Laboratory results published in patent US20220195027A1, “ANTI-ANGIOGENESIS THERAPY FOR THE TREATMENT OF PREVIOUSLY TREATED BREAST CANCER” (Genentech, Inc., priority 2009, published 2022).
Where two headings read alike, the source gives them in different places.

How the values were obtained:
[1] = RIBBON 2 Phase III study, safety (adverse events), safety population; type: in vivo; details: in combination with chemotherapy
Text: Ribbon 2 was an international, multicenter, randomized, double-blind, placebo-controlled clinical study that enrolled 684 patients with metastatic HER2-negative breast cancer who had previously received chemotherapy for their metastatic disease. […] The trial evaluated the addition of either Avastin® (bevacizumab) or placebo to an investigator's choice of chemotherapy. The following chemotherapy regimens were used in the study: taxanes: paclitaxel, protein-bound paclitaxel or docetaxel; gemcitabine; capecitabine; or vinorelbine.

[2] = test system: previously treated metastatic HER2-negative breast cancer; test: RIBBON 2 Phase III study, efficacy (PFS, OS) of bevacizumab or placebo plus chemotherapy; type: in vivo, human; details: for Progression free survival, result in words: in combination with chemotherapy, compared to chemotherapy alone
Experimental: The doctors treating the women in the study chose the type of chemotherapy used in combination with Avastin and the chemotherapies were assessed together in the primary endpoint analysis. […] Ribbon 2 was an international, multicenter, randomized, double-blind, placebo-controlled clinical study that enrolled 684 patients with metastatic HER2-negative breast cancer who had previously received chemotherapy for their metastatic disease. See Study Conduct in Table 1 and Patient Characteristics in Table 2. The trial evaluated the addition of either Avastin® (bevacizumab) or placebo to an investigator's choice of chemotherapy. The following chemotherapy regimens were used in the study: taxanes: paclitaxel, protein-bound paclitaxel or docetaxel; gemcitabine; capecitabine; or vinorelbine. Bevacizumab (5 mg/kg Weekly Equivalent) 15 mg/kg IV q 3 weeks; or […] Plus Chemotherapy Taxane • Paclitaxel (e.g., Taxol®): 90 mg/m^2 IV every week for 3 weeks followed by 1 week of rest; or • Paclitaxel (e.g., Taxol®): 175 mg/m^2 IV every 3 weeks; or • Paclitaxel protein-bound particles (Abraxane®): 260 mg/m^2 IV every 3 weeks; or • Docetaxel (Taxotere®): 75-100 mg/m^2 IV every 3 weeks; or Gemcitabine (Gemzar®): 1250 mg/m^2 IV on Days 1 and 8 of each 3-week cycle; or Vinorelbine (Navelbine®): 30 mg/m^2 IV every week; or […] In the study, PFS was defined as the time from randomization to disease progression or death as assessed by the treating physicians in the study (investigator-assessed). Secondary endpoints included objective response rate, duration of response, one-year survival rate, overall survival, PFS assessment by chemotherapy type and safety. […] See Table 3 Primary Efficacy Analysis of PFS and FIG. 2 (Primary Endpoint of PFS) and FIG. 3 (Cohort-Specific Analyses of PFS). PFS results were generally consistent across chemotherapy cohorts with the exception of the small vinorelbine sub-group. Other sub-groups (age, triple negative, etc.) were generally consistent with the primary PFS results. The observed improvement in overall PFS was supported by the secondary efficacy endpoint of ORR. See Table 4 for Interim Efficacy Analysis of OS. […] See, e.g., Table 5, Safety Summary, Safety Population, Table 6 Selected AEs, Safety Population and Table 7 Safety Summary by Chemotherapy Cohort, Safety Population. Bevacizumab was beneficial to patients as a second-line treatment.

[3] = test system: metastatic breast cancer; details: MBC patients with prior anthracycline therapy; cited from earlier work
[4] = test system: metastatic breast cancer; details: patients who previously received or were not candidates for anthracyclines; cited from earlier work

Molecule | Safety signals, result in words [1] | Safety signals, result in words ([1]; listed as Avastin) | PFS stratified analysis HR (95% CI) ([2]; Chemo/BV vs Chemo/PL, ITT population) | PFS median ([2]; ITT population, investigator-assessed) [months] | Progression free survival, result in words [2] | Progression free survival, result in words ([2]; listed as Avastin) | survival [3] [months] | time to disease progression [3] [months] | survival [4] [months] | time to progression [4] [months]
bevacizumab: recombinant humanized anti-VEGF monoclonal antibody with human IgG1 framework and CDRs from murine antibody A.4.6.1 | No new bevacizumab safety signals were observed | no new Avastin safety signals were observed | 0.775 | 7.2 | increase in progression free survival | increased the time | – | – | – | –
CC(=O)O[C@@]12CO[C@@H]1C[C@H](O)[C@@]1(C)C(=O)[C@H](O)C3=C(C)[C@@H](OC(=O)[C@H](O)[C@@H](NC(=O)OC(C)(C)C)c4ccccc4)C[C@@](O)([C@@H](OC(=O)c4ccccc4)[C@H]21)C3(C)C [docetaxel] | – | – | – | – | – | – | 11.4 | 4.4 | 11.5 | 4.2
